Measurements published in ChEMBL document CHEMBL2073742, “The rat canalicular conjugate export pump (Mrp2) is down-regulated in intrahepatic and obstructive cholestasis” (Gastroenterology, 1997).

Target: ATP-binding cassette sub-family C member 2 (Rattus norvegicus, UniProt Q63120)
Assay: TP_TRANSPORTER: Western in vivo, liver of SD rat
Assay type: functional, organism-based, Sprague-Dawley

Chain of ATP-binding cassette sub-family C member 2 (Q63120 whole entry): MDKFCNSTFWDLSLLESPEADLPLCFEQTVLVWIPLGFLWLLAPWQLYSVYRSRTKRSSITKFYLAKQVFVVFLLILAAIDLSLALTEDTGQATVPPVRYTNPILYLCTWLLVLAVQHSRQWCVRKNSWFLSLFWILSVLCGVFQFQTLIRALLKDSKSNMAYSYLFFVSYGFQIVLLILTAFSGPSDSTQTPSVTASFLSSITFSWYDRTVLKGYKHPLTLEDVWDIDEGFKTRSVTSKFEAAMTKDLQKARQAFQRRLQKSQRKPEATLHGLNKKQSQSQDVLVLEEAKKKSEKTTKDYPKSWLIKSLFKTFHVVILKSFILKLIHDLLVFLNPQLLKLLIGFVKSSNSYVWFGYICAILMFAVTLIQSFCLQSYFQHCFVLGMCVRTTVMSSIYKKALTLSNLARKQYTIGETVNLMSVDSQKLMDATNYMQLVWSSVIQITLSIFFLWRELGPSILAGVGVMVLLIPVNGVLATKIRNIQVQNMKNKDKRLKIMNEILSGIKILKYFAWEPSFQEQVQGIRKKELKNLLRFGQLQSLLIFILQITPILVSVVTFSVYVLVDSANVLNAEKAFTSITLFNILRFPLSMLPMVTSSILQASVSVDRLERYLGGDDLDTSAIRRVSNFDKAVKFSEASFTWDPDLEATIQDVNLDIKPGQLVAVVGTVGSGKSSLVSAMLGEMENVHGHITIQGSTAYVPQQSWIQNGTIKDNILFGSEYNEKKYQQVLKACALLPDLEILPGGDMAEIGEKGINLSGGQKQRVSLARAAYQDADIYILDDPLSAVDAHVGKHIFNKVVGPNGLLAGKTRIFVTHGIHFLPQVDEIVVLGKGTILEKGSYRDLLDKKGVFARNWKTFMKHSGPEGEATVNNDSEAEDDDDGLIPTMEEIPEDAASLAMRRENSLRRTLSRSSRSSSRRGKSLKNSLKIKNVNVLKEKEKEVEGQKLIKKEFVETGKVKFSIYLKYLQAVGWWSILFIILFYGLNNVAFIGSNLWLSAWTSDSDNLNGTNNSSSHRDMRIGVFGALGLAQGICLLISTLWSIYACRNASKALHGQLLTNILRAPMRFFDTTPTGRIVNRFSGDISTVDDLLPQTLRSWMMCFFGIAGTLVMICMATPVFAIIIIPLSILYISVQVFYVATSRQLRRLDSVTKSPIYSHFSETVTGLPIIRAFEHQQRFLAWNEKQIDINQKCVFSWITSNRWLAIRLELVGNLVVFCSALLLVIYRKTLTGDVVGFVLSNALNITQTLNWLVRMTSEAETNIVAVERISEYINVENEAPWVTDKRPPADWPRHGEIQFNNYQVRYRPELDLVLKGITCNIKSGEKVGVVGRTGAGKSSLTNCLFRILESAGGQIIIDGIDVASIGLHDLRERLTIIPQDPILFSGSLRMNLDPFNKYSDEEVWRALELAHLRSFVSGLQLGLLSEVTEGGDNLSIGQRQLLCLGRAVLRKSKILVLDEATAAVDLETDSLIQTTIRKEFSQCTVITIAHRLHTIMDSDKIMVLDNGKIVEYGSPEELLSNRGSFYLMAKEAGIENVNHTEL

Activity: inducer [Decrease]
SMILES: C#C[C@]1(O)CC[C@H]2[C@@H]3CCc4cc(O)ccc4[C@H]3CC[C@@]21C [ETHINYL ESTRADIOL]
